41 compounds from patent US20170280720A1, “ARGININE […] INHIBITORS AND USES THEREOF” (EPIZYME, INC., priority 2014, published 2017) can be followed below.

For test [1], the target named is PRMT5 (Homo sapiens, UniProt O14744). The test can be described thus: PRMT5 IC50 (Table 2; no method described). Particulars: read-out: PRMT5_ IC50. Type of test: biochemical.
Test [2] deals with T1, Human CARM1 (PRMT4) (Homo sapiens, UniProt Q86X55).
T1 construct: Flag-CARM1-His; made in house; host or cells: HEK 293F cells (BacMam baculovirus, pFastBacMam)
T1 sequence (Q86X55 2-585 isoform Q86X55-1): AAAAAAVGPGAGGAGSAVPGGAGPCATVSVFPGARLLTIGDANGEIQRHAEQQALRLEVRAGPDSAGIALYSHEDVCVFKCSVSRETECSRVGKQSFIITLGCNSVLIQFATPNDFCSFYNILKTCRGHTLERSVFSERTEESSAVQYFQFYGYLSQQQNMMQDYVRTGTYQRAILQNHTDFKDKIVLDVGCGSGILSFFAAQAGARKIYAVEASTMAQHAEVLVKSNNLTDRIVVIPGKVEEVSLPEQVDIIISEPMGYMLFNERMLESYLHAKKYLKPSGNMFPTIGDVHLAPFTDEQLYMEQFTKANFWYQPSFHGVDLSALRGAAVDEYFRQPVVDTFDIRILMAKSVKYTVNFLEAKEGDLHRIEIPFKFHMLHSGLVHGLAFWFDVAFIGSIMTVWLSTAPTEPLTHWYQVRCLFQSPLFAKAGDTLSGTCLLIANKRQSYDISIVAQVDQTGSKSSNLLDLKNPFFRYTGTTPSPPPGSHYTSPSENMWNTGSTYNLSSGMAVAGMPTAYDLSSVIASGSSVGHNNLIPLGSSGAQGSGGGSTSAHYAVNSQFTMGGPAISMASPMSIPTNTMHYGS
Description: CARM1 biochemical assay (3H-SAM Flashplate, peptide substrate). Particulars: read-out: CARM1_ IC50. The essentials:
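FLAG/His-tagged human CARM1 (isoform 1, Δ539-561, baculovirus-expressed), 0.25 nM, preincubated 30 min at room temperature with compound (2% DMSO) in 20 mM Bicine pH 7.6, then reacted with 30 nM 3H-SAM and 250 nM biotinylated H3 16-30 peptide (R26 monomethyl). Stopped with 300 uM cold SAM; labelled peptide captured on streptavidin Flashplate; % inhibition versus DMSO and 1 mM SAH controls fitted to a 4- or 3-parameter curve.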

Sequence of PRMT5 (O14744 whole entry, species assumed): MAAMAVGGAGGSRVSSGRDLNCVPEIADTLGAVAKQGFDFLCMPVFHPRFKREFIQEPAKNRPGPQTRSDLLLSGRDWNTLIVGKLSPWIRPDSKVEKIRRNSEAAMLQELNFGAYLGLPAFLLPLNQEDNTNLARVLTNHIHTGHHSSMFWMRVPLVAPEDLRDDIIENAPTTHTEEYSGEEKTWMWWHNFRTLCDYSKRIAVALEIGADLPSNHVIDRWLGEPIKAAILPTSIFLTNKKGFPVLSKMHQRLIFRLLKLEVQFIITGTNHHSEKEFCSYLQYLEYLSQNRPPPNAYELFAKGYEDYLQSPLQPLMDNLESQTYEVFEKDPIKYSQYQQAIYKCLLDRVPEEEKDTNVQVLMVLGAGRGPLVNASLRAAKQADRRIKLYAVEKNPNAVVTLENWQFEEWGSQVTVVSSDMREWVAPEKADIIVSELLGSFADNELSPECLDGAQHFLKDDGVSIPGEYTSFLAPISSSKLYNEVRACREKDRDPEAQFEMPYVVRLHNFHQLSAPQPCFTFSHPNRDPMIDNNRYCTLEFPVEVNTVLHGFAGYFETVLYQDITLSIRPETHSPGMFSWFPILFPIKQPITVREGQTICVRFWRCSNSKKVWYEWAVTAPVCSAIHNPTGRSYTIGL
Sequence of PRMT5 (Q9BQA1 whole entry partner, species assumed): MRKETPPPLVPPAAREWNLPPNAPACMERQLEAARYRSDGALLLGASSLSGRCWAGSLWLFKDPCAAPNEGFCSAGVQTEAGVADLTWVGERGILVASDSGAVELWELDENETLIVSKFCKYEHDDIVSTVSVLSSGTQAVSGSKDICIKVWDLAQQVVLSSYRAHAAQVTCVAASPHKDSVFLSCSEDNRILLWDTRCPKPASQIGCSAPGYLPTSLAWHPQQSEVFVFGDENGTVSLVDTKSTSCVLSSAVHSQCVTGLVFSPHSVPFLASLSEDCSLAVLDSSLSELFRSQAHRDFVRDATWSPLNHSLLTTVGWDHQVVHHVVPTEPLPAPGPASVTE

By IC50 is commonly meant the concentration that inhibits the measured activity by half. On to `NCCNCc1ccc(-c2ccc3cnn(CC4CCNCC4)c3c2)cc1` [Compound 348], for which the half-inhibitory concentration (IC50) amounted to 435 nM in test [1] and 10000 nM in test [2]. With `CNCCN(C)Cc1cccc(-c2cc(C(=O)N(C)Cc3cccc(F)c3)c3cnn(C(C)C)c3n2)c1` [Compound 244], the values for the IC50 in test [1] and in test [2] were 2830 nM and 53.1 nM, respectively.

Regarding `CC(C)n1ncc2c(C(=O)N(C)Cc3ccc(F)cc3)cc(-c3cccc(CN(C)CCN)c3)nc21` [Compound 240], the IC50 stood at 7420 nM in test [1] and 49.7 nM in test [2]. In the case of `CC(C)n1ncc2c(C(=O)N(C)Cc3ccccc3Cl)cc(-c3cccc(CN(C)CCN)c3)nc21` [Compound 242], the figures for the IC50 in test [1] and in test [2] were 235 nM and 51.9 nM, respectively. For `NCCNCc1ccc(-c2ccc3ncn(Cc4cccc(C(=O)NC5CCCC5)c4)c3c2)cc1` [Compound 332], in that order: 85.9 nM and 2840 nM.

As for `CNCCN(C)Cc1cccc(-c2cc(C(=O)N[C@@H](C)c3ccccc3)c3cnn(Cc4ccccc4F)c3n2)c1` [Compound 283], the results for the IC50 in test [1] and in test [2] were 29200 nM and 131 nM, respectively.

For the compound `CNCCN(C)Cc1cccc(-c2cc(C(=O)N(C)C(C)c3ccccc3)c3cnn(C(C)C)c3n2)c1` (centres unmarked) [Compound 246], the IC50 in test [1] came to 577 nM; in test [2], 54.3 nM. On to `CC(C)n1ncc2c(C(=O)N(C)[C@@H](C)c3ccccc3)cc(-c3cccc(CN(C)CCN)c3)nc21` [Compound 193], for which the 50% inhibitory concentration (IC50) in test [1] came to 790 nM; in test [2], 13.5 nM. Regarding `CC(C)n1ncc2c(C(=O)N(C)Cc3cccc(F)c3)cc(-c3cccc(CN(C)CCN)c3)nc21` [Compound 287], the results for the IC50 in test [1] and in test [2] were 4170 nM and 153 nM, respectively.

For `CC(=O)N1CCC(Cn2cnc3ccc(-c4ccc(CNCCN)cc4)cc32)CC1` [Compound 352], the IC50 in test [1] worked out at 325 nM. Take `NCCNCc1ccc(-c2ccc3ncn(CCc4cccc(Cl)c4)c3c2)cc1` [Compound 336]: the IC50 was determined as 66.5 nM in test [1] and 5120 nM in test [2]. As for `CN1CCN(CCNC(=O)c2cccc(Cn3cnc4ccc(-c5ccc(CNCCN)cc5)cc43)c2)CC1` [Compound 333], the figures for the IC50 in test [1] and in test [2] were 94.7 nM and 3060 nM, respectively. For `COc1ccc(Cn2ncc3ccc(-c4ccc(CNCCN)cc4)cc32)cc1` [Compound 339], in that order: 135 nM and 5680 nM. As for `CC(=O)N1CCC(Cn2ncc3ccc(-c4ccc(CNCCN)cc4)cc32)CC1` [Compound 353], in test [1], the concentration for half-maximal inhibition (IC50) amounted to 351 nM. Regarding `Cc1cc(C)c(CN2Cc3ccc(-c4ccc(CNCCN)cc4)cc3C2=O)c(=O)[nH]1` [Compound 390], the half-inhibitory concentration (IC50) in test [1] was 472 nM; in test [2], 17500 nM. In the case of `NCCNCc1ccc(-c2ccc3ncn(Cc4cccc(C(=O)NCc5ccccc5)c4)c3c2)cc1` [Compound 337], the 50% inhibitory concentration (IC50) in test [1] is 33.3 nM; in test [2], 5350 nM. Take `NCCNCc1ccc(-c2ccc3ncn(Cc4cccc(C(=O)N5CCCC5)c4)c3c2)cc1` [Compound 323]: the half-maximal inhibitory concentration (IC50) in test [1] worked out at 127 nM; in test [2] it was 756 nM. Take `CC(C)n1ncc2c(C(=O)N(C)Cc3cccc(Cl)c3)cc(-c3cccc(CN(C)CCN)c3)nc21` [Compound 266]: the half-inhibitory concentration (IC50) was 1790 nM in test [1] and 74.9 nM in test [2]. `CN1CCCC(Cn2cnc3ccc(-c4ccc(CNCCN)cc4)cc32)C1` (centres unmarked) [Compound 338]: the results for the half-maximal inhibitory concentration (IC50) in test [1] and in test [2] were 439 nM and 5530 nM, respectively. As for `CS(=O)(=O)c1ccc(Cn2cnc3ccc(-c4ccc(CNCCN)cc4)cc32)cc1` [Compound 340], the IC50 in test [1] was 105 nM; in test [2] it was 5940 nM. On to `NCCNCc1ccc(-c2ccc3ncn(Cc4cccc(C(=O)NC5CCCc6ccccc65)c4)c3c2)cc1` (centres unmarked) [Compound 325], for which the IC50 in test [1] is 25.3 nM; in test [2], 1030 nM.

Consider `COCCNC(=O)c1cccc(Cn2cnc3ccc(-c4ccc(CNCCN)cc4)cc32)c1` [Compound 345], for which the IC50 in test [1] turned out to be 114 nM; in test [2], 9390 nM. Consider `CN1CCN(C(=O)c2cccc(Cn3cnc4ccc(-c5ccc(CNCCN)cc5)cc43)c2)CC1` [Compound 329], for which the concentration for half-maximal inhibition (IC50) in test [1] worked out at 136 nM; in test [2], 2480 nM.

Regarding `CN(C)C(=O)c1cccc(Cn2cnc3ccc(-c4ccc(CNCCN)cc4)cc32)c1` [Compound 341], the results for the IC50 in test [1] and in test [2] were 87.3 nM and 6080 nM, respectively. For `CC(C)n1ncc2c(C(=O)NCc3cccc(F)c3)cc(-c3cccc(CN(C)CCN)c3)nc21` [Compound 251], in that order: 47300 nM and 59.1 nM. Consider `CNCCN(C)Cc1cccc(-c2cc(C(=O)N(C)Cc3ccccc3F)c3cnn(C(C)C)c3n2)c1` [Compound 304], for which the IC50 in test [1] was found to be 670 nM; in test [2] it was 239 nM. On to `NCCNCc1ccc(-c2ccc3ncn(Cc4cccc(C(=O)Nc5cccc6c5CCCC6)c4)c3c2)cc1` [Compound 328], for which the IC50 in test [1] is 80.5 nM; in test [2], 2190 nM. As for `NCCNCc1ccc(-c2ccc3ncn(Cc4cccc(C(=O)Nc5ccccc5)c4)c3c2)cc1` [Compound 330], the IC50 in test [1] was 52.4 nM; in test [2], 2720 nM. For `CNCCN(C)Cc1cccc(-c2cc(C(=O)N(C)Cc3ccc(F)cc3)c3cnn(C(C)C)c3n2)c1` [Compound 278], in that order: 8730 nM and 110 nM. With `N#Cc1ccc(Cn2cnc3ccc(-c4ccc(CNCCN)cc4)cc32)cc1` [Compound 344], the half-inhibitory concentration (IC50) was 67.6 nM in test [1] and 8960 nM in test [2]. In the case of `CN1CCCN(C(=O)c2cccc(Cn3cnc4ccc(-c5ccc(CNCCN)cc5)cc43)c2)CC1` [Compound 331], the IC50 in test [1] amounted to 118 nM; in test [2], 2810 nM.

`NCCNCc1ccc(-c2ccc3cnn(Cc4cccc(C(=O)N5CCOCC5)c4)c3c2)cc1` [Compound 349]: the IC50 in test [1] was found to be 117 nM. On to `CN(C(=O)c1cccc(Cn2cnc3ccc(-c4ccc(CNCCN)cc4)cc32)c1)C1CCCC1` [Compound 346], for which the results for the IC50 in test [1] and in test [2] were 116 nM and 10000 nM, respectively. Consider `NCCNCc1ccc(-c2ccc3cnn(Cc4cccc(Oc5ccccc5)c4)c3c2)cc1` [Compound 334], for which the half-inhibitory concentration (IC50) is 467 nM in test [1] and 3130 nM in test [2]. Regarding `CC(C)(C)C(=O)Cn1cnc2cc(-c3ccc(CNCCN)cc3)ccc21` [Compound 354], the IC50 in test [1] is 452 nM.

Turning to `NCCNCc1ccc(-c2ccc3cnn(Cc4cccc(C(=O)N5CCCCC5)c4)c3c2)cc1` [Compound 326], the results for the IC50 in test [1] and in test [2] were 170 nM and 1270 nM, respectively. Turning to `NCCNCc1ccc(-c2ccc3cnn(Cc4cccc(C(=O)N5CCCC5)c4)c3c2)cc1` [Compound 324], the half-inhibitory concentration (IC50) came out at 97.3 nM in test [1] and 887 nM in test [2].

Take `CNCCN(C)Cc1cccc(-c2cc(C(=O)N[C@@H](C)c3ccccc3)c3cnn(Cc4ccccc4)c3n2)c1` [Compound 281]: the half-maximal inhibitory concentration (IC50) in test [1] was determined as 17400 nM; in test [2], 128 nM. In the case of `CN1CCN(C(=O)c2cccc(Cn3ncc4ccc(-c5ccc(CNCCN)cc5)cc43)c2)CC1` [Compound 335], the half-maximal inhibitory concentration (IC50) is 73.8 nM in test [1] and 3510 nM in test [2].

Turning to `NCCNCc1ccc(-c2ccc3ncn(Cc4cccc(C(=O)NC5CCCCC5)c4)c3c2)cc1` [Compound 327], the IC50 in test [1] is 72.8 nM; in test [2] it was 1600 nM. For the compound `NCCNCc1ccc(-c2ccc3cnn(C4CCNCC4)c3c2)cc1` [Compound 351], the IC50 in test [1] is 235 nM.
